Experimental data taken from US20080081041A1 (priority 2006, published 2008).
Like-named read-outs stand apart in the source and are kept apart here.

Experiments:
[1] = test system: DU-145 human prostate xenograft; assay: DU-145 human prostate xenograft in nude mice, time to tumor volume of 1000 mm3; format: in vivo; details: for % TGD (tumor growth delay): [(T-C)/C]×100, versus PBS Group 1; for tumor growth delay vs. control (in words): monotherapy versus Group 1; for T-C (difference between median TTE of treated versus control group): same dosing, versus PBS Group 1; for Median TTE: time to tumor volume 1000 mm3, CNTO328 10 mg/Kg i.p. biweekly, Mitoxantrone 0.75 mg/Kg i.v. once per D for 5 D, n=8
From the text: Nude mice were implanted subcutaneously with 1 mm3 fragments of DU-145 human prostate xenograft tissue. […] Dosing was initiated on Day 1 as follows: […] The study endpoint was the time taken for tumors to reach a volume of 1000 mm3 at which time each animal was euthanized. Days in Progress=56. Calculation using the TTE=time to endpoint are: T−C=difference between median TTE (days) of treated versus control group, TGD=tumor growth delay. % TGD=[(T-C)/C]×100. The Logrank test was used to analyze the significance of the differences between the TTE values of treated and control groups. Two-tailed statistical analyses were conducted at significance level P-0.05. Statistical Significance: ns=not significant, **=P<0.01 compared to group indicated.

[2] = test system: DU145 cells; assay: DU145 cell killing, ATPlite assay (ATP production); format: cell-based, human; details: for timecourse of cell killing / EC50 / effect on sensitivity / resistance of the cells to mitoxantrone: DU145 cells; for EC50: Homo sapiens, DU-145, read-out: EC50 values for killing by Mitoxantrone, CNTO 328 at 20 μg/mL where combined; for effect on sensitivity / resistance of the cells to mitoxantrone: 48 and 72 hour timepoints
Experimental: DU145 cells were established from a metastatic central nervous system lesion of androgen-independent prostate carcinoma (Stone, K. R. et al. 1978 Int J Cancer 21: 274-81). […] Thus, study of direct interactions of chemotherapy agents and IL6 modulators can be studied on prostate tumor cells in vitro.
DU145 cells were plated at 500 cells/well in a 96 well plate and allowed to adhere for several hours. Treatments were added and plates were incubated at 37° C. for either 24, 48, or 72 hours. […] CNTO 328 was tested at 20 μg/mL and IL-6 was tested at both 10 and 50 ng/mL. Plates were analyzed for ATP production using the ATPlite assay from Perkin Elmer.

[3] = test system: metastatic HRPC; details: docetaxel every 3 weeks; cited from earlier work
[4] = test system: human prostate tumor; details: human prostate tumor-bearing mice; cited from earlier work

Which results are given for `O=C1c2c(O)ccc(O)c2C(=O)c2c(NCCNCCO)ccc(NCCNCCO)c21` [Mitoxantrone, 1,4-Dihydroxy-5,8-bis[[2-[(2-hydroxyethyl)amino]ethyl]amino]-9,10-anthracenedione]?
% TGD (tumor growth delay) [1]: 29%; mean body weight nadir ([1]; day 10): −5%; tumor growth delay vs. control (in words) [1]: no significant tumor growth delay; T-C (difference between median TTE of treated versus control group) [1]: 6.2 days; Median TTE [1]: 27.7 days; timecourse of cell killing ([2]; 48 and 72 hours (FIG. 1)): greatest reduction in cell survival; timecourse of cell killing ([2]; 24 hours (FIG. 1)): minimal cell death; EC50 ([2]; 48 Hours): 23 nM; EC50 ([2]; 72 Hours): 10.8 nM

For `CC(=O)O[C@@]12CO[C@@H]1C[C@H](O)[C@@]1(C)C(=O)[C@H](O)C3=C(C)[C@@H](OC(=O)[C@H](O)[C@@H](NC(=O)OC(C)(C)C)c4ccccc4)C[C@@](O)([C@@H](OC(=O)c4ccccc4)[C@H]21)C3(C)C` [docetaxel], which “improvement of survival over the reference M/P regimen” value [3] is on record?
Its value is 2-2.5 months.

For “IL-6: 22-27 kDa secreted glycoprotein cytokine, added exogenously”, which “effect on sensitivity / resistance of the cells to mitoxantrone” value [2] is on record?
Its value is “did not increase resistance to the effect of mitoxantrone”.

B1: CNTO 328: an anti-IL-6 monoclonal antibody, derived from the CLB-8 anti-IL-6 antibody (antibody, chains of the INN, looked up, V domains shown)
VH: EVQLVESGGKLLKPGGSLKLSCAASGFTFSSFAMSWFRQSPEKRLEWVAEISSGGSYTYYPDTVTGRFTISRDNAKNTLYLEMSSLRSEDTAMYYCARGLWGYYALDYWGQGTSVTVSS
VL: QIVLIQSPAIMSASPGEKVTMTCSASSSVSYMYWYQQKPGSSPRLLIYDTSNLASGVPVRFSGSGSGTSYSLTISRMEAEDAATYYCQQWSGYPYTFGGGTKLEIK
For B1, which “effect of monotherapy on tumor and survival” value [4] is on record?
Its value is “block conversion to androgen independent growth, induce tumor apoptosis, and prolong survival”.

And the “% TGD (tumor growth delay)” value [1]?
The value was −21%.

And the “tumor growth delay vs. control (in words)” value [1]?
The value was “no significant tumor growth delay”.

And the “T-C (difference between median TTE of treated versus control group)” value [1]?
The value was -4.6 days.

What about the “Median TTE” value [1] of the same molecule?
The value was 16.9 days.

And the “effect on sensitivity / resistance of the cells to mitoxantrone” value [2]?
Its value is “does not significantly alter the sensitivity of the cells to mitoxantrone”.

And the “proliferation of the DU145 cells” value ([2]; agent alone (not shown))?
Its value is “ineffective at reducing proliferation”.
